Molecules are shown by their SMILES.

The test system of the first experiment is PKC mediated IL-2 production. Put plainly: IL-2 ELISA, human primary T cell, anti CD3+CD28+. The format is cell-based. Particulars: Homo sapiens, T-cell, 24 h, human primary T cells stimulated with αCD3 and αCD28, 24 hours. A digest of the protocol: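 IL-2 was quantified by ELISA in 24 h supernatants from primary human T cells given a 1 h compound pre-treatment at 37° C. These cells had been expanded from blood mononuclear cells on αCD3/αCD28 with IL-2, and the IL-2 was removed by washing. Stimulation used plate-bound αCD3 ([…]) plus αCD28 (5 μg/ml); the counter assay used PMA (0.5 ng/ml) with ionomycin (0.1 uM) instead.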
(An ELISA detects its analyte on a solid surface through an enzyme-linked reagent.)
One may read the EC50 as the concentration at which the effect is half-maximal. A low value points to an effect from little substance. With `CC(O)COc1ccc(Nc2ncc(F)c(N[C@@H]3C[C@@H]4CCCN4C(C)(C)C3)n2)cc1C#N` (stereo partly drawn) [Compound 201, 5-((4-(((7R,8aS)-5,5-dimethyloctahydroindolizin-7-yl)amino)-5-fluoropyrimidin-2-yl)amino)-2-(2-hydroxypropoxy)benzonitrile], the EC50 fell in the range of 100 to 500 nM.

`COCCOc1ccc(Nc2ncc(F)c(N[C@@H]3C[C@@H]4CCCN4C(C)(C)C3)n2)cc1-n1cnnn1` [Compound 202, N4-((7R,8aS)-5,5-dimethyloctahydroindolizin-7-yl)-5-fluoro-N2-(4-(2-methoxyethoxy)-3-(1H-tetrazol-1-yl)phenyl)pyrimidine-2,4-diamine] yielded a concentration giving a half-maximal response (EC50) of less than 100 nM.

`CC1(COc2ccc(Nc3ncc(F)c(N[C@@H]4C[C@@H]5CCCN5C(C)(C)C4)n3)cc2-n2cnnn2)COC1` [Compound 203, N4-((7R,8aS)-5,5-dimethyloctahydroindolizin-7-yl)-5-fluoro-N2-(4-((3-methyloxetan-3-yl)methoxy)-3-(1H-tetrazol-1-yl)phenyl)pyrimidine-2,4-diamine]: the EC50 was less than 100 nM.

In the case of `CC1(C)C[C@H](Nc2nc(Nc3ccc(OCC4(CO)COC4)c(-n4cnnn4)c3)ncc2F)C[C@@H]2CCCN21` [Compound 204, (3-((4-((4-(((7R,8aS)-5,5-dimethyloctahydroindolizin-7-yl)amino)-5-fluoropyrimidin-2-yl)amino)-2-(1H-tetrazol-1-yl)phenoxy)methyl)oxetan-3-yl)methanol], the EC50 is 500 to 1000 nM.

`CC1(C)C[C@H](Nc2nc(Nc3ccc(OCCO)c(-n4cnnn4)c3)ncc2F)C[C@@H]2CCCN21` [Compound 205, 2-(4-((4-(((7R,8aS)-5,5-dimethyloctahydroindolizin-7-yl)amino)-5-fluoropyrimidin-2-yl)amino)-2-(1H-tetrazol-1-yl)phenoxy)ethan-1-ol] gave an EC50 of less than 100 nM.

In turn, `CC(O)COc1ccc(Nc2ncc(F)c(N[C@@H]3C[C@@H]4CCCN4C(C)(C)C3)n2)cc1-n1cnnn1` (stereo partly drawn) [Compound 206, 1-(4-((4-(((7R,8aS)-5,5-dimethyloctahydroindolizin-7-yl)amino)-5-fluoropyrimidin-2-yl)amino)-2-(1H-tetrazol-1-yl)phenoxy)propan-2-ol] showed an EC50 of less than 100 nM.

Compound `COCCOCCOc1ccc(Nc2ncc(F)c(N[C@@H]3C[C@@H]4CCCN4C(C)(C)C3)n2)cc1-n1cnnn1` [Compound 207, N4-((7R,8aS)-5,5-dimethyloctahydroindolizin-7-yl)-5-fluoro-N2-(4-(2-(2-methoxyethoxy)ethoxy)-3-(1H-tetrazol-1-yl)phenyl)pyrimidine-2,4-diamine] had a concentration for a half-maximal effect (EC50) of less than 100 nM.

On to `COc1cc(Nc2ncc(F)c(N[C@@H]3C[C@@H]4CCCN4C(C)(C)C3)n2)ccc1O` [Compound 208, 4-((4-(((7R,8aS)-5,5-dimethyloctahydroindolizin-7-yl)amino)-5-fluoropyrimidin-2-yl)amino)-2-methoxyphenol], for which the EC50 was in the range of 1000 to 10000 nM.

For the compound `CC1(C)C[C@H](Nc2nc(Nc3ccc(OCC(O)(C(F)(F)F)C(F)(F)F)c(C#N)c3)ncc2F)C[C@@H]2CCCN21` [Compound 209, 5-((4-(((7R,8aS)-5,5-dimethyloctahydroindolizin-7-yl)amino)-5-fluoropyrimidin-2-yl)amino)-2-(3,3,3-trifluoro-2-hydroxy-2-(trifluoromethyl)propoxy)benzonitrile], the concentration giving a half-maximal response (EC50) lay in the range of 100 to 500 nM.

In the case of `[2H]C([2H])(O)C([2H])([2H])Oc1ccc(Nc2ncc(F)c(N[C@@H]3C[C@@H]4CCCN4C(C)(C)C3)n2)cc1C#N` [Compound 210, 5-((4-(((7R,8aS)-5,5-dimethyloctahydroindolizin-7-yl)amino)-5-fluoropyrimidin-2-yl)amino)-2-(2-hydroxyethoxy-1,1,2,2-d4)benzonitrile], the 50% effective concentration (EC50) is less than 100 nM.

The compound `CC1(C)C[C@H](Nc2nc(Nc3ccc(OCC(O)CO)c(C#N)c3)ncc2F)C[C@@H]2CCCN21` (stereo partly drawn) [Compound 212, 2-(2,3-dihydroxypropoxy)-5-((4-(((7R,8aS)-5,5-dimethyloctahydroindolizin-7-yl)amino)-5-fluoropyrimidin-2-yl)amino)benzonitrile] had an EC50 of 1000 to 10000 nM.

With `CC1(C)C[C@H](Nc2nc(Nc3ccc(OCCCO)c(C#N)c3)ncc2F)C[C@@H]2CCCN21` [Compound 213, 5-((4-(((7R,8aS)-5,5-dimethyloctahydroindolizin-7-yl)amino)-5-fluoropyrimidin-2-yl)amino)-2-(3-hydroxypropoxy)benzonitrile], the EC50 lay within 100 to 500 nM.

Take `CC1(C)C[C@H](Nc2nc(Nc3ccc(OCC(O)CO)c(-n4cnnn4)c3)ncc2F)C[C@@H]2CCCN21` (stereo partly drawn) [Compound 214, 3-(4-((4-(((7R,8aS)-5,5-dimethyloctahydroindolizin-7-yl)amino)-5-fluoropyrimidin-2-yl)amino)-2-(1H-tetrazol-1-yl)phenoxy)propane-1,2-diol]: the EC50 fell in the range of 100 to 500 nM.

`CC1(C)C[C@H](Nc2nc(Nc3ccc(OCCCO)c(-n4cnnn4)c3)ncc2F)C[C@@H]2CCCN21` [Compound 215, 3-(4-((4-(((7R,8aS)-5,5-dimethyloctahydroindolizin-7-yl)amino)-5-fluoropyrimidin-2-yl)amino)-2-(1H-tetrazol-1-yl)phenoxy)propan-1-ol]: the concentration for a half-maximal effect (EC50) was less than 100 nM.

`COc1cc(Nc2ncc(F)c(N[C@@H]3C[C@@H]4CCCN4C(C)(C)C3)n2)ccc1OCCO` [Compound 216, 2-(4-((4-(((7R,8aS)-5,5-dimethyloctahydroindolizin-7-yl)amino)-5-fluoropyrimidin-2-yl)amino)-2-methoxyphenoxy)ethan-1-ol] had an EC50 of more than 10000 nM.

`[2H]C([2H])(O)C([2H])([2H])Oc1ccc(Nc2ncc(F)c(N[C@@H]3C[C@@H]4CCCN4C(C)(C)C3)n2)cc1OC` [Compound 217, 2-(4-((4-(((7R,8aS)-5,5-dimethyloctahydroindolizin-7-yl)amino)-5-fluoropyrimidin-2-yl)amino)-2-methoxyphenoxy)ethan-1,1,2,2-d4-1-ol] came in with a concentration for a half-maximal effect (EC50) of more than 10000 nM.

`C[C@H](CO)COc1cc(F)c(Nc2ncc(F)c(N[C@@H]3C[C@@H]4CCCN4C(C)(C)C3)n2)cc1-n1nnn(C)c1=O` [Compound 222, 1-(5-((4-(((7R,8aS)-5,5-dimethyloctahydroindolizin-7-yl)amino)-5-fluoropyrimidin-2-yl)amino)-4-fluoro-2-((R)-3-hydroxy-2-methylpropoxy)phenyl)-4-methyl-1,4-dihydro-5H-tetrazol-5-one]: the EC50 was 100 to 500 nM.

The compound `CC1(C)C[C@H](Nc2nc(Nc3ccc(OCCO)c(-n4cnnn4)c3)ncc2Cl)C[C@@H]2CCCN21` [Compound 223, 2-(4-((5-chloro-4-(((7R,8aS)-5,5-dimethyloctahydroindolizin-7-yl)amino)pyrimidin-2-yl)amino)-2-(1H-tetrazol-1-yl)phenoxy)ethan-1-ol] had an EC50 of less than 100 nM.

`Cn1nnn(-c2cc(Nc3ncc(F)c(N[C@@H]4C[C@@H]5CCCN5C(C)(C)C4)n3)c(F)cc2OC2CC(OCc3ccccc3)C2)c1=O` (stereo partly drawn) [Compound 225, 1-(2-(3-(benzyloxy)cyclobutoxy)-5-((4-(((7R,8aS)-5,5-dimethyloctahydroindolizin-7-yl)amino)-5-fluoropyrimidin-2-yl)amino)-4-fluorophenyl)-4-methyl-1,4-dihydro-5H-tetrazol-5-one]: the EC50 is 100 to 500 nM.

Compound `Cn1nnn(-c2cc(Nc3ncc(F)c(N[C@@H]4C[C@@H]5CCCN5C(C)(C)C4)n3)c(F)cc2OCCNC(=O)OC(C)(C)C)c1=O` [Compound 226, tert-butyl (2-(4-((4-(((7R,8aS)-5,5-dimethyloctahydroindolizin-7-yl)amino)-5-fluoropyrimidin-2-yl)amino)-5-fluoro-2-(4-methyl-5-oxo-4,5-dihydro-1H-tetrazol-1-yl)phenoxy)ethyl)carbamate] returned a concentration giving a half-maximal response (EC50) of 100 to 500 nM.

In turn, `Cn1nnn(-c2cc(Nc3ncc(F)c(N[C@@H]4C[C@@H]5CCCN5C(C)(C)C4)n3)c(F)cc2OC2CC(O)C2)c1=O` (stereo partly drawn) [Compound 227, 1-(5-((4-(((7R,8aS)-5,5-dimethyloctahydroindolizin-7-yl)amino)-5-fluoropyrimidin-2-yl)amino)-4-fluoro-2-(3-hydroxycyclobutoxy)phenyl)-4-methyl-1,4-dihydro-5H-tetrazol-5-one] had an EC50 of 100 to 500 nM.

Still in this experiment, the particulars now being: T-cell, human primary T cells stimulated with αCD3 and αCD28, 24 hours.
`CC(O)COc1cc(F)c(Nc2ncc(F)c(N[C@@H]3C[C@@H]4CCCN4C(C)(C)C3)n2)cc1-n1nnn(C)c1=O` (stereo partly drawn) [Compound 200, 1-(5-((4-(((7R,8aS)-5,5-dimethyloctahydroindolizin-7-yl)amino)-5-fluoropyrimidin-2-yl)amino)-4-fluoro-2-(2-hydroxypropoxy)phenyl)-4-methyl-1,4-dihydro-5H-tetrazol-5-one] came in with a concentration for a half-maximal effect (EC50) of less than 100 nM.

As for `CC1(C)C[C@H](N(CC(O)CO)c2nc(Nc3ccc(OCC(O)CO)c(C#N)c3)ncc2F)C[C@@H]2CCCN21` (stereo partly shown) [Compound 211], the EC50 is 1000 to 10000 nM.

The compound `[2H]C([2H])(O)C([2H])([2H])Oc1cc(F)c(Nc2ncc(F)c(N[C@@H]3C[C@@H]4CCCN4C(C)(C)C3)n2)cc1-n1nnn(C)c1=O` [Compound 221, 1-(5-((4-(((7R,8aS)-5,5-dimethyloctahydroindolizin-7-yl)amino)-5-fluoropyrimidin-2-yl)amino)-4-fluoro-2-(2-hydroxyethoxy-1,1,2,2-d4)phenyl)-4-methyl-1,4-dihydro-5H-tetrazol-5-one] registered a 50% effective concentration (EC50) of less than 100 nM.

The experiment is the same for the next values; noted with them: human primary T cells stimulated with αCD3 and αCD28, 24 hours.
On to `[2H]C([2H])(O)C([2H])([2H])Oc1ccc(Nc2ncc(F)c(N[C@@H]3C[C@@H]4CCCN4C(C)(C)C3)n2)cc1C#N` [Compound 219, 5-((4-(((7R,8aS)-5,5-dimethyloctahydroindolizin-7-yl)amino)-5-fluoropyrimidin-2-yl)amino)-2-(2-hydroxyethoxy-1,1,2,2-d4)benzonitrile], for which the half-maximal effective concentration (EC50) lay in the range of 100 to 500 nM.

The record behind these values is patent US9682976B2, “Protein kinase C inhibitors and uses thereof” (Rigel Pharmaceuticals, Inc., priority 2012, dated 2017).
